From patent US20230391772A1, “METHODS AND COMPOSITIONS FOR TARGETED PROTEIN DEGRADATION” (Ranok Therapeutics (Hangzhou) Co. Ltd., priority 2020, published 2023)

Key:
KRAS(G12C) = KRAS(G12C) (Homo sapiens, UniProt P01116, G12C); assay: KRAS(G12C)/SOS1 homogeneous time-resolved fluorescence (HTRF) assay; design: purchased Cisbio 63ADK000CB16PEG; details: absence of GTP, 4° C. for 3 hr, read-out: KRAS (G12C) binding
Method in brief: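 Three-hour incubation at 4 °C of 3-fold compound dilutions (lowest 1.02 nM) with KRAS(G12C), SOS1 and detection reagents, GTP absent. Disruption of the KRAS(G12C)/SOS1 complex detected by time-resolved fluorescence.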

HSP90a protein = biological target: T1, HSP90a protein (Homo sapiens, UniProt P07900); assay: HSP90α-binding fluorescent polarization (FP) assay, BODIPY-labeled RNK04010 probe; details: FP competition with RNK04010 (BODIPY-labeled), 5 nM, 300 min at 25° C.
T1 construct: purchased BPS Bioscience 50298
Method in brief: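 N-terminal HSP90a construct; tracer 5 nM final (FITC-geldanamycin or BODIPY-RNK04010, a labeled triazolone binder). Compounds 20 μM–5.2 nM, 2.5-fold steps. 25° C, 120 min (FITC) / 300 min (BODIPY). FP readout.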

[1] = test system: MIA PaCa-2 human pancreatic carcinoma; assay: MIA PaCa-2 CCK-8 proliferation assay; type: cell-based; details: Homo sapiens, MIA PaCa-2, 72 h, MIA PaCa-2 cells
Method in brief: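 Proliferation of mutant-KRAS(G12C) cells (2 copies in MIA PaCa-2, single copy in NCI-H358/NCI-H23) measured with CCK-8 after treatment across 20 μM–1.02 nM; inhibition expressed relative to vehicle-treated wells after subtracting no-cell background.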

Chain of KRAS(G12C) (P01116 1-188 isoform P01116-2 G12C): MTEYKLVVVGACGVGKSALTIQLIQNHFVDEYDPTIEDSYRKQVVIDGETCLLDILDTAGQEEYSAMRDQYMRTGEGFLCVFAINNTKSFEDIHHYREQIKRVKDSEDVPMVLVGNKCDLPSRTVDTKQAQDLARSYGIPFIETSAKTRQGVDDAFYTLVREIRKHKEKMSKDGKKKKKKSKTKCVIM

Compound	IC50 (KRAS(G12C)) [nM]	IC50 (HSP90a protein) [nM]	EC50 [1] [nM]
C=CC(=O)N1CCN(c2nc(OC[C@@H]3CC[C@H](C(=O)N4CCN(C(=O)C5CCN(Cc6ccc(-n7c(C(=O)NCC(F)(F)F)nnc7-c7cc(C)c(O)cc7O)cc6)CC5)CC4)N3C)nc3c2CCN(c2cccc4cccc(Cl)c24)C3)C[C@@H]1CC#N [Compound 332, 4-{4-[(4-{4-[(2R,5S)-5-({[7-(8-chloronaphthalen-1-yl)-4-[(3S)-3-(cyanomethyl)-4-(prop-2-enoyl)piperazin-1-yl]-5H,6H,8H-pyrido[3,4-d]pyrimidin-2-yl]oxy}methyl)-1-methylpyrrolidine-2-carbonyl]piperazine-1-carbonyl}piperidin-1-yl)methyl]phenyl}-5-(2,4-dihydroxy-5-methylphenyl)-N-(2,2,2-trifluoroethyl)-1,2,4-triazole-3-carboxamide]	< 100	< 100	< 100
C=CC(=O)N1CCN(c2nc(OC[C@@H]3CC[C@H](C(=O)N4CCN(C(=O)c5ccc(-n6c(C(=O)NCC(F)(F)F)nnc6-c6cc(C(C)C)c(O)cc6O)cc5)CC4)N3C)nc3c2CCN(c2cccc4cccc(Cl)c24)C3)C[C@@H]1CC#N [Compound 331, 4-(4-{4-[(2R,5S)-5-({[7-(8-chloronaphthalen-1-yl)-4-[(3S)-3-(cyanomethyl)-4-(prop-2-enoyl)piperazin-1-yl]-5H,6H,8H-pyrido[3,4-d]pyrimidin-2-yl]oxy}methyl)-1-methylpyrrolidine-2-carbonyl]piperazine-1-carbonyl}phenyl)-5-(2,4-dihydroxy-5-isopropylphenyl)-N-(2,2,2-trifluoroethyl)-1,2,4-triazole-3-carboxamide]	< 100	< 100	< 100
C=CC(=O)N1CCN(c2nc(OC[C@@H]3CC[C@H](CN4CCN(C(=O)C5CCN(Cc6ccc(-n7c(C(=O)NCC(F)(F)F)nnc7-c7cc(C(C)C)c(O)cc7O)cc6)CC5)CC4)N3C)nc3c2CCN(c2cccc4cccc(Cl)c24)C3)C[C@@H]1CC#N [Compound 310, 4-(4-{[4-(4-{[(2R,5S)-5-({[7-(8-chloronaphthalen-1-yl)-4-[(3S)-3-(cyanomethyl)-4-(prop-2-enoyl)piperazin-1-yl]-5H,6H,8H-pyrido[3,4-d]pyrimidin-2-yl]oxy}methyl)-1-methylpyrrolidin-2-yl]methyl}piperazine-1-carbonyl)piperidin-1-yl]methyl}phenyl)-5-(2,4-dihydroxy-5-isopropylphenyl)-N-(2,2,2-trifluoroethyl)-1,2,4-triazole-3-carboxamide]	< 100	< 100	< 100
C=CC(=O)N1CCN(c2nc(OC[C@@H]3CC[C@H](C(=O)N4CCN(Cc5cc(C(C)C)c(O)cc5O)CC4)N3C)nc3c2CCN(c2cccc4cccc(Cl)c24)C3)C[C@@H]1CC#N [Compound 329, 2-[(2S)-4[7-(8chloronaphthalen-1-yl)-2-{[(2S,5R)-5-{4-[(2,4-dihydroxy-5-isopropylphenyl)methyl]piperazine-1-carbonyl}-1-methylpyrrolidin-2-yl]methoxy}-5H,6H,8H-pyrido[3,4-d]pyrimidin-4-yl]-1-(prop-2-enoyl)piperazin-2-yl]acetonitrile]	100 to 1000	< 100	> 1000
C=CC(=O)N1CCN(c2nc(OC[C@@H]3C[C@H](N4CCC(C(=O)N5CCN(Cc6ccc(-n7c(C(=O)NCC(F)(F)C(F)(F)F)nnc7-c7cc(C(C)C)c(O)cc7O)cc6)CC5)CC4)CN3C)nc3c2CCN(c2cccc4cccc(Cl)c24)C3)C[C@@H]1CC#N [Compound 323]	< 100	< 100	< 100
C=CC(=O)N1CCN(c2nc(OC[C@@H]3C[C@@H](NC(=O)C4CCN(Cc5ccc(-n6c(C(=O)NCC(F)(F)F)nnc6-c6cc(C(C)C)c(O)cc6O)cc5)CC4)CN3C)nc3c2CCN(c2cccc4cccc(Cl)c24)C3)C[C@@H]1CC#N [Compound 200, N-((3R,5S)-5-(((4-((S)-4-acryloyl-3-(cyanomethyl)piperazin-1-yl)-7-(8-chloronaphthalen-1-yl)-5,6,7,8-tetrahydropyrido[3,4-d]pyrimidin-2-yl)oxy)methyl)-1-methylpyrrolidin-3-yl)-1-(4-(3-(2,4-dihydroxy-5-isopropylphenyl)-5-((2,2,2-trifluoroethyl)carbamoyl)-4H-1,2,4-triazol-4-yl)benzyl)piperidine-4-carboxamide]	< 100	< 100	< 100
C=CC(=O)N1CCN(c2nc(OC[C@@H]3C[C@H](C(=O)N4CCN(CCNC(=O)c5nnc(-c6cc(C(C)C)c(O)cc6O)n5-c5ccccc5)CC4)CN3C)nc3c2CCN(c2cccc4cccc(Cl)c24)C3)C[C@@H]1CC#N [Compound 343, N-(2-{4-[(3S,5S)-5-({[7-(8-chloronaphthalen-1-yl)-4-[(3S)-3-(cyanomethyl)-4-(pr-op-2-enoyl)piperazin-1-yl]-5H,6H,8H-pyrido[3,4-d]pyrimidin-2-yl]oxy}methyl)-1-methylpyrrolidine-3-carbonyl]piperazin-1-yl}ethyl)-5-(2,4-dihydroxy-5-isopropylphenyl)-4-phenyl-1,2,4-triazole-3-carboxamide]	< 100	< 100	100 to 1000
C=CC(=O)N1CCN(c2nc(OC[C@@H]3C[C@@H](NC(=O)C4CCN(Cc5ccc(-n6c(C(=O)NCCN7CCN(C)CC7)nnc6-c6cc(C(C)C)c(O)cc6O)cc5)CC4)CN3C)nc3c2CCN(c2cccc4cccc(Cl)c24)C3)C[C@@H]1CC#N [Compound 201, N-((3R,5S)-5-(((4-((S)-4-acryloyl-3-(cyanomethyl)piperazin-1-yl)-7-(8-chloronaphthalen-1-yl)-5,6,7,8-tetrahydropyrido[3,4-d]pyrimidin-2-yl)oxy)methyl)-1-methylpyrrolidin-3-yl)-1-(4-(3-(2,4-dihydroxy-5-isopropylphenyl)-5-((2-(4-methylpiperazin-1-yl)ethyl)carbamoyl)-4H-1,2,4-triazol-4-yl)benzyl)piperidine-4-carboxamide]	100 to 1000	< 100	> 1000
C=CC(=O)N1CCN(c2nc(OC[C@@H]3C[C@H](C(=O)N4CCN(Cc5ccc(-n6c(C(=O)NCC(F)(F)C(F)(F)F)nnc6-c6cc(C(C)C)c(O)cc6O)cc5)CC4)CN3C)nc3c2CCN(c2cccc4cccc(Cl)c24)C3)C[C@@H]1CC#N [Compound 339, 4-[4-({4-[(3S,5S)-5-({[7-(8-chloronaphthalen-1-yl)-4-[(3S)-3-(cyanomethyl)-4-(pr-op-2-enoyl)piperazin-1-yl]-5H,6H,8H-pyrido[3,4-d]pyrimidin-2-yl]oxy}methyl)-1-methylpyrrolidine-3-carbonyl]piperazin-1-yl}methyl)phenyl]-5-(2,4-dihydroxy-5-isopropylphenyl)-N-(2,2,3,3,3-pentafluoropropyl)-1,2,4-triazole-3-carboxamide]	100 to 1000	< 100	100 to 1000
C=CC(=O)N1CCN(c2nc(OC[C@@H]3C[C@@H](OC(=O)NCc4ccc(-n5c(O)nnc5-c5cc(CC)c(O)cc5O)cc4)CN3C)nc3c2CCN(c2cccc4cccc(Cl)c24)C3)C[C@@H]1CC#N [Compound 295, (3R,5S)-5-(((4-((S)-4-acryloyl-3-(cyanomethyl)piperazin-1-yl)-7-(8-chloronaphthalen-1-yl)-5,6,7,8-tetrahydropyrido[3,4-d]pyrimidin-2-yl)oxy)methyl)-1-methylpyrrolidin-3-yl 4-(3-(5-ethyl-2,4-dihydroxyphenyl)-5-hydroxy-4H-1,2,4-triazol-4-yl)benzylcarbamate]	100 to 1000	< 100	> 1000
